According to patent publication US12404332B2, “Methods for diagnosing and treating cancers” (Research Development Foundation, priority 2020, dated 2025):
Entries after “also recorded” stand apart in the source; their conditions may differ.

Experiments:
Chk2 = Chk2 protein content by immunoblot in B16-F10 cells; format: cell-based, mouse; details: PD-L1^KO but not CTRL B16-F10 cells
ID8agg cells = assay: Erlotinib plus olaparib in ID8agg cells (MTT); format: cell-based, mouse
Method: 1,000 ID8agg cells were plated per well in 96 well plates. Cells were treated with 1, 2, or 3 μM of erlotinib and 5 μM or olaparib.

[1] = tested on: ID8agg murine ovarian cancer cells; assay: In vitro viability (MTT) of CTRL versus PD-L1^KO ID8agg cells; format: cell-based, mouse; details: for sensitivity of PD-L1^KO versus control ID8agg cells to the agent: monotherapy
Method: (§1) Cells (1×10^3) were plated in 96 well plastic culture plates in respective medium and treated for 5 days with DDRi or 3 days with gemcitabine at indicated concentrations. Drug concentrations were carefully optimized in preliminary work not shown. Cell viability was by MTT (3-(4,5-dimethylthiazol-2-yl)-2,5-diphenyl tetrazolium bromide) at 5 mg/ml. Absorbance was measured at 540 nm. Results are presented as a mean+/−SEM of ≥6 replicates. Total cells and viability were confirmed using a Vi-Cell-XR (Beckman Coulter).

[2] = tested on: RT4 human bladder cancer cells; assay: In vitro viability (MTT) of CTRL versus PD-L1^KO RT4 cells; format: cell-based; details: for sensitivity of PD-L1^KO versus control RT4 cells to the agent: monotherapy
Method: as §1

γH2AX in RT4 cells = assay: γH2AX immunoblot (DNA damage) in RT4 cells; format: cell-based, human
Method: (§2) Immunoblotting was performed as described (Clark et al., 2016; Gupta et al., 2016). Protein was measured by BCA (ThermoFisher). Cell Signaling antibodies were phospho-histone H2A.X (#9718), phospho-Chk1^Ser345 (#2348), phosph-Chk2^Thr68 (#2197), phospho-ATM^Ser1981 (#5883), phospho-ATR^Ser428 (#2853), total-Chk1 (#2360), total-chk2 (#2662), total-ATM (#2873), total-ATR (#13934), total-NBS1 (#14956), total-Rad50 (#3427), RAD51, vinculin (#13901), beta-actin (#12620), human-PD-L1 (#13684), mouse-PD-L1. Abcam antibodies were (ab3801) and (ab80276) and total-BRCA1 was R&D MAB22101. All were used as per manufacturer's recommendation.

γH2AX in ID8agg cells = assay: γH2AX immunoblot (DNA damage) in ID8agg cells; format: cell-based, mouse
Method: as §2

PD-L1 = PD-L1 after DNA damaging agents; format: cell-based
[3] = tested on: MB49 murine bladder cancer cells; assay: In vitro viability (MTT) of CTRL versus PD-L1^KO MB49 cells; format: cell-based, mouse
Method: as §1

[4] = tested on: B16 murine melanoma cells; assay: In vitro viability (MTT) of CTRL versus PD-L1^KO B16 cells; format: cell-based, mouse
Method: as §1

[5] = tested on: CTRL or PD-L1^KO MB49 tumors; assay: MB49 tumor growth in NSG mice; format: in vivo, mouse; details: PD-L1^KO but not control MB49 tumors
Method: (§3) NSG mice were challenged with MB49 (0.3×10^6 cells) subcutaneously on opposite flanks. Olaparib (daily 25 mg/kg, 4% DMSO) was injected intraperitoneally on days 3-11. 4T1 (0.5×10^6 cells) were injected into mammary fat pads of NSG mice with Matrigel (1:1, Corning). Rabusertib (LY2602618, 4% DMSO) was administered intraperitoneally on day 3 (10 mg/kg) and days 10 and 17 (1 mg/kg).

[6] = tested on: CTRL or PD-L1^KO B16 tumors; assay: B16 tumor growth in wild type or RAG2^KO mice; format: in vivo, mouse
Method: B16 cells were injected subcutaneously on opposite flanks into BL6 (0.5×10^6 cells) or RAG2^KO mice (0.4×10^6). Olaparib was administered daily intraperitoneally (50 mg/kg, 4% DMSO) on days 3-13. Tumors were measured with Vernier calipers and volume calculated as (length×width^2)/2. Mice were sacrificed when tumors reached ˜1500 mm^3 or if distressed.

[7] = tested on: CTRL and PD-L1^KO RT4 cells; assay: Viability of RT4 cells treated with Chk1 inhibitor plus atezolizumab; format: cell-based, human; details: in vitro, absence of immune cells
Method: (§4) FIGS. 27A-H: Anti-PD-L1 antibodies mimic genetic PD-L1 depletion to impair tumor cell-intrinsic DDR signals and promote sensitivity to Chk1 inhibition in vitro and in vivo. Cell viability of FIG. 27A, CTRL and FIG. 27B, PD-L1^KORT4 cells treated with LY2603618 (Chk1 inhibitor) as shown plus IgG1 isotype or atezolizumab (atezo, 3 μg/ml) for 72 hours in vitro. Mean+SEM, n=6 replicates, ***, P<0.001, unpaired t-test. FIG. 27C, Immunoblot (IB) analysis of ATM, Chk2, γH2AX and vinculin (VINC) of RT4 cells treated in vitro with isotype, atezolizumab, Chk1i, or their combination. FIG. 27D, Viability of 4T1 cells as in panel A substituting anti-murine PD-L1 and isotype controls. FIG. 27E, IB of 4T1 as in panel FIG. 27C. FIG. 27F, Tumor curves of NSG mice (n=10 tumors/group) challenged with 4T1 tumor cells and treated with Chk1i±αPD-L1. FIG. 27G, Tumor curves and FIG. 27H, tumor weights in WT […] mice challenged and treated as in panel FIG. 27F. P values, two-way ANOVA.

[8] = tested on: UV induced TpN^61R derived CD274^+/+ or CD274^−/− melanoma cells; assay: Viability of de novo Nras CD274^+/+ versus CD274^−/− melanoma cells; format: cell-based, mouse; details: in vitro
From the text: (§5) FIGS. 26A-H: De novo PD-L1^KO tumors phenocopy important aspects of genetic PD-L1 depletion in established tumors. FIG. 26A, Melanoma-free survival of melanocyte specific CD274^fl,fl TpN^61R (KO) versus littermate (WT) autochthonous mice under conditions shown. FIG. 26B, Validation of PD-L1 expression by immunoblot (IB) of melanoma cells derived from UV induced (4.5 Kj/m^2) WT (CD274^+/+) or melanocyte specific CD274^KO (CD274^−/−) mice±in vitro interferon (IFN)-γ treatment. Viability curves of CD274^+/+ versus CD274^−/− cells treated with the selective Chk1 inhibitors FIG. 26C, prexasertib […] or FIG. 26D, rabusertib (LY2603618) in vitro at indicated concentrations. FIG. 26E, IB analysis of PD-L1, ATM, Chk2, and γH2AX of vehicle or rabusertib-treated CD274^+/+ and CD274^−/− cell lines. FIGS. 26F-H, Tumor growth curves in WT C57BL/6J mice (n=10 tumors/group) challenged with UV induced TpN^61R derived CD274^+/+ or CD274^−/− melanoma cells and treated with rabusertib (Chk1i, LY2603618) on the indicated treatment schedule. P values, two-way ANOVA.

[9] = tested on: CTRL or PD-L1^lo 4T1 tumors; assay: 4T1 tumor growth in NSG mice; format: in vivo, mouse; details: PD-L1^lo but not control 4T1 tumors, NSG females
Method: as §3

[10] = tested on: 4T1 murine breast cancer cells; assay: In vitro viability (MTT) of CTRL versus PD-L1^lo 4T1 cells; format: cell-based, mouse; details: listed as Chk1i
Method: as §1

[11] = tested on: TpN^61R derived CD274^+/+ or CD274^−/− melanoma tumors; assay: Growth of de novo PD-L1 null versus replete melanoma in C57BL/6J mice; format: in vivo, mouse; details: C57BL/6J wild type mice
From the text: as §5

4T1 tumors = 4T1 tumors in mice treated with Chk1i ± αPD-L1; format: in vivo, mouse; details: wild type mice
Method: as §4

[12] = tested on: human MDA-MB-231 triple negative breast cancer cells; assay: In vitro sensitivity of PD-L1^lo versus CTRL MDA-MB-231 cells; format: cell-based

CO/C1=C\C(C)=C\[C@@H](C)[C@@H](O)[C@@H](C)C/C(C)=C/C=C/[C@H](OC)[C@@H]([C@@H](C)[C@@H](O)[C@H](C)[C@@]2(O)C[C@@H](O)[C@H](C)[C@@H](C(C)C)O2)OC1=O [Bafilomycin A1]
Chk2 accumulation (Chk2): led to Chk2 accumulation

C#Cc1cccc(Nc2ncnc3cc(OCCOC)c(OCCOC)cc23)c1 [erlotinib]
olaparib activity in combination (ID8agg cells; FIG. 46A): Olaparib activity is seen with erlotinib | PD-L1 depletion over time (ID8agg cells; previous western, 24 hours, but not at 48 hours): only depletes PD-L1 for short periods of time

Nc1ccn([C@@H]2O[C@H](CO)[C@@H](O)C2(F)F)c(=O)n1 [gemcitabine]
fold more sensitive to gemcitabine, PD-L1^KO versus control cells ([1]; ID8agg cells): 29 fold | fold more sensitive to gemcitabine, PD-L1^KO versus control cells ([2]; RT4 cells): 2 fold | sensitivity of PD-L1^KO versus control RT4 cells to the agent [2]: substantially lower viability | γH2AX following treatment, PD-L1^KO versus control cells (γH2AX in RT4 cells): markedly elevated; also recorded: accumulated more γH2AX | γH2AX following treatment, PD-L1^KO versus control cells (γH2AX in ID8agg cells): markedly elevated | PD-L1 after DNA damaging agent (PD-L1): increased PD-L1

O=C(c1cc(Cc2n[nH]c(=O)c3ccccc23)ccc1F)N1CCN(C(=O)C2CC2)CC1 [olaparib]
sensitivity of PD-L1^KO versus control MB49 cells to the agent [3]: more sensitive | sensitivity of PD-L1^KO versus control ID8agg cells to the agent [1]: Minimal effects | cytotoxicity against PD-L1^KO versus control B16 cells [4]: Moderate differences | sensitivity of PD-L1^KO versus control RT4 cells to the agent [2]: Minimal effects | tumor growth and weight after treatment [5]: robustly growth inhibited and weighed less | limiting PD-L1^KO B16 tumors ([6]; RAG2^KO mice lacking adaptive immunity): ineffective | control of PD-L1^KO versus control B16 growth ([6]; wild type mice): significantly more effective

Cc1cnc(NC(=O)Nc2cc(Br)c(C)cc2OC[C@@H]2CNCCO2)cn1 [rabusertib]
viability of RT4 cells, single agent [7]: expected dose-response toxicity | synthetic lethality in induced PD-L1^KO tumors [8]: exhibited synthetic lethality | tumor sensitivity to single agent treatment [9]: particularly sensitive | sensitivity of PD-L1^lo versus control 4T1 cells to the agent [10]: significantly growth inhibited; also recorded: enhanced sensitivity | sensitivity of PD-L1^KO versus control ID8agg cells to the agent ([1]; listed as Chk1i): enhanced sensitivity | control of in vivo growth, PD-L1 null versus PD-L1 replete tumors [11]: controlled in vivo growth significantly better | cytotoxicity against PD-L1^KO versus control B16 cells [4]: striking cytotoxicity | 4T1 tumors in vivo (4T1 tumors): failed to benefit | cytotoxicity in PD-L1^KO versus control RT4 cells [2]: over 15 fold | sensitivity of PD-L1^KO versus control RT4 cells to the agent [2]: striking cytotoxicity | sensitivity of PD-L1^lo versus CTRL MDA-MB-231 cells [12]: more sensitive | PD-L1 after DNA damaging agent (PD-L1): increased PD-L1
